For orientation: Ki means the dissociation constant of the complex between target and ligand, obtained from inhibition or displacement.

Where two headings read alike, the source gives them in different places.

The source of these data is patent publication US8338472B2, “Hexahydrocyclopentyl[F]indazole carboxamides and derivatives thereof as selective glucocorticoid receptor modulators” (Merck Sharp & Dohme Corp., priority 2008, dated 2012).

One assay addresses T1, human GR (Homo sapiens, UniProt P04150).
T1 construct: U937 cells contain an endogenous glucocorticoid receptor (GR); endogenous in cells; host or cells: U937 cells stably transfected with the TNF-alpha promoter/beta-lactamase reporter
T1 sequence (P04150 1-777): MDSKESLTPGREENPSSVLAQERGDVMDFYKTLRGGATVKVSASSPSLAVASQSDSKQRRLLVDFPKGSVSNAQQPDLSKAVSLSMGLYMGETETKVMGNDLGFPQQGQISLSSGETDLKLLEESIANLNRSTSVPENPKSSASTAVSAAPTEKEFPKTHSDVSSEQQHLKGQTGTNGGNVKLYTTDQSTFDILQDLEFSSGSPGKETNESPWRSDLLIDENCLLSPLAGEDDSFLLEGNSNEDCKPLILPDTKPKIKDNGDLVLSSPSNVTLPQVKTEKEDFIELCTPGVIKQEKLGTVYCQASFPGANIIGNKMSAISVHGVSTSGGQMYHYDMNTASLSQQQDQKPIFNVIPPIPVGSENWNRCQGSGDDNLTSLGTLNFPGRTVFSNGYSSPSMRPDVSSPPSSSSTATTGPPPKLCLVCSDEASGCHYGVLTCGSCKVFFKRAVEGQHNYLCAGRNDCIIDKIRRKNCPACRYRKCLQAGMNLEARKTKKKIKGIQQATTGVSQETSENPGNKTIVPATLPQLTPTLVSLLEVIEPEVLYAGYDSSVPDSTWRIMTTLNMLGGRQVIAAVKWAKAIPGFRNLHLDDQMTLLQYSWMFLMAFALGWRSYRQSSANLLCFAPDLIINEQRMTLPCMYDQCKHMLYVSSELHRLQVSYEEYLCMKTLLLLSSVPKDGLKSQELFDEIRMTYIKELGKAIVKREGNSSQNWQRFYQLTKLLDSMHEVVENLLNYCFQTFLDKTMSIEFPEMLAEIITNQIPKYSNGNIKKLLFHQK
Description: Transrepression Assay (GITAR), TNFα-β-lactamase reporter gene in U937 cells. The assay is classed as cell-based. Particulars: for GITAR Greater than by GRAMMER % SEP: GITAR Emax minus GRAMMER Emax; for EC50: inflection point, read-out: Transrepression U937 Cells GITAR IP. The text has this:
Transrepression Assay (GITAR)
This assay assesses the ability of test compounds to control transcription from the TNFα-β-lactamase reporter gene in U937 cells, a human myelomonocytic leukemia cell line that naturally expresses the human GR. The assay measures compound dependent-repression of the TNFa promoter linked to a reporter gene.
The human U937 cells that had been stablely transfected with the TNF-α promoter driving β-lactamase are used for this assay. U937 cells contain an endogenous glucocorticoid receptor (GR). Cells are maintained in RPMI 1640 Growth medium (Gibco Cat#11875-093) containing 25 mM HEPES, 10% FBS, 2 mM L-Glutamine, 1 mM Sodium pyruvate, 25 μg/ml Gentamicin (Gibco Cat#15710-064), 1:1000 2-Mercaptoethanol (Gibco Cat#21985-023) and 0.8 mg/ml G418 (Gibco Cat#10131-027). The density of the cells in the flask needs to be about 1×10^6−3×10^6/ml at the time of harvest. Usually, the cells are split to 1.2˜1.4×10^5/ml (1:10) 3 days prior to the assay. 50,000 cells/well are plated in 96 well black-walled plates the day of assay. Test compounds are added 10 pt/well, and cells are incubated at 37° C. for 30-45 min. For assaying compounds, first dilute 1:10 in DMSO to make 1 mM, then further dilute 1:100 in medium to make 10× stock prior to adding to the cells. Add 50 ng/ml PMA (Sigma, cat# P8139) 10 μL/well to a final concentration 5 ng/ml, and 1 μg/ml LPS (Sigma, cat# L4130) 10 μL/well to a final concentration 100 ng/ml. Incubate cells at 37° C. overnight for ˜18 hr. PMA is stored frozen as 100 μg/ml stock in DMSO. Dilute 1:10 in DMSO for a working stock of 10 μg/ml and store at −20C. For assaying, dilute the […] working stock 1:200 in medium to make a 10× solution (50 ng/ml). Store frozen LPS at 1 mg/ml in PBS, dilute 1:1000 in medium to make 10× (1 μg/ml) for the assay. Add 6× loading buffer (CCF2−AM) 20 μL/well, and incubate at room temperature for 70-90 min. […] The activity repressed by 100 nM dexamethasone alone is set as 100% activity.
For orientation: A reporter such as luciferase makes a cellular process visible.

Assay [1] deals with T2, glucocorticoid receptor (GR) (Homo sapiens, UniProt P04150).
T2 sequence (P04150 1-777): T1 sequence (P04150 1-777)
Briefly: Ligand binding assay (GR BIND), 3H-dexamethasone displacement in MDA-MB-453 cell lysate. Particulars: GR BIND Ki, Table 1.

The target in the next assay is T3, Glucocorticoid Receptor (Homo sapiens, UniProt P04150).
T3 construct: These cells express large amount of the GR and are very responsive to GC treatment; endogenous in cells; host or cells: A549 cells transiently transfected with the MMTV-LUC reporter
T3 sequence (P04150 1-777): T1 sequence (P04150 1-777)
Description: Trans-Activation Modulation of Glucocorticoid Receptor (GRAMMER), MMTV-LUC reporter gene in A549 cells. The following applies: Table 1; for Emax: A549, A549 cells, read-out: Transactivation A549 Cells GRAMMER Emax; for EC50: inflection point, read-out: Transactivation A549 Cells GRAMMER IP. The assay is classed as cell-based. The text has this: Trans-Activation Modulation of Glucocorticoid Receptor (GRAMMER)
This assay assesses the ability of test compounds to control transcription from the MMTV-LUC reporter gene in lung adenocarcinoma A549 cells or MDA-MB-453 cells, a human breast cancer cell line that naturally expresses the human GR. The assay measures induction of a modified MMTV LTR/promoter linked to the LUC reporter gene.
The routine transient assay consists of plating 7,000-25,000 cells/well of a white, clear-bottom 96-well plate. Alternatively, 384-well plates can be used at a cell concentration of 10,000/well. The media that the cells are plated in is “exponential growth medium” which consists of phenol red-free RPMI1640 containing 10% FBS, 4 mM L-glutamine, 20 mM HEPES, 10 ug/mL human insulin, and 20 ug/mL gentamicin. Incubator conditions are 37° C. and 5% CO2. The transfection is done in batch mode. The cells are trypsinized and counted to the right cell number in the proper amount of fresh media. It is then gently mixed with the FuGene6/DNA mix and plated onto the 96 or 384-well plate, all the wells receive 100 uL or 40 uL, respectively, of medium+lipid/DNA complex then incubated 37° C. overnight. The transfection cocktail consists of serum-free OptiMEM, FuGene6 reagent and DNA. The manufacturer's (Roche Biochemical) protocol for cocktail setup is as follows: The lipid to DNA ratio is approximately 2.5:1 and the incubation time is 20 min at room temperature. Sixteen to 24 hours after transfection, the cells are treated with dexamethasone to a final concentration of 10 nM as well as the compound of interest, such that final DMSO (vehicle) concentration is equal to or less than 1%. Each plate also contains samples that are treated with 10 nM dexamethasone alone, which is used as the 100% activity control. The cells are exposed to the compounds for 24 hours. After 24 hours, the cells are lysed by a Promega cell culture lysis buffer for approximately 30 min and then the luciferase activity in the extracts is assayed in the 96-well format luminometer. In 384-well format, Steady-Glo (Promega) or Steady-Lite (PerkinElmer) can be used by adding an equal volume of reagent to the media present in each well. Activity induced by 10 nM dexamethasone alone is set at 100% activity. Antagonist activity is calculated by determining the decrease in dexamethasone-induced activity in response to compound treatment relative to samples that were treated with dexamethasone alone. […] This transactivation assay can be performed in an agonist and antagonist mode to identify these different activities.
Activity of test compounds is calculated as the Emax relative to the activity obtained with 300 nM dexamethasone. Activity of test compounds is calculated as the Emax relative to the activity obtained with 300 nM DEX. […] The action of compounds is also tested in an antagonist mode (Anti-GRAMMER) in which the cells are treated with medium containing an agonist such as 10 nM DEX and the ability to agents to inhibit the activation by an agonist is measured.

[2] abbreviates: U-937, U937 cells, activity repressed by 100 nM dexamethasone = 100%, Table 1, read-out: Transrepression U937 Cells GITAR Emax.
The mark [3] stands for this setting: U-937, text statement, 100 nM dexamethasone = 100%, read-out: maximal activity in the transrepression assay (GITAR).
Setting [4] is: Emax relative to 300 nM dexamethasone.

For the compound `CCCN(CC(O)C(F)(F)F)C(=O)[C@H]1CCC2=Cc3c(cnn3-c3ccc(F)cc3)C[C@@]21C` (stereo partly drawn) [Compound 61, (4αR,5S)-1-(4-fluorophenyl)-4α-methyl-N-propyl-N-(3,3,3-trifluoro-2-hydroxypropyl)-1,4,4α,5,6,7-hexahydrocyclopenta[f]indazole-5-carboxamide], the “GITAR Greater than by GRAMMER % SEP” value on human GR (Table 1) is reported as 14.0%. For the same compound, the Emax at human GR (setting [2]) was 96.5%; on human GR (setting [3]) it was greater than 5%; at Glucocorticoid Receptor (setting [4]), 82.4%. Moreover, the EC50 turned out to be 41.2 nM at human GR (U937 cells, Table 1) and 55.6 nM at Glucocorticoid Receptor (A549 cells). In assay [1], the Ki was found to be 1 nM.

Consider `C[C@]12Cc3cnn(-c4ccc(F)cc4)c3C=C1CC[C@@H]2C(=O)N(CCO)CC(=O)c1coc2ccccc12` [Compound 29, (4αR,5S)-N-[2-(1-benzofuran-3-yl)-2-oxoethyl]-1-(4-fluorophenyl)-N-(2-hydroxyethyl)-4α-methyl-1,4,4α,5,6,7-hexahydrocyclopenta[f]indazole-5-carboxamide], for which the “GITAR Greater than by GRAMMER % SEP” value on human GR (Table 1) is on record as 29.8%. The figures for the Emax on human GR (setting [2]), on human GR (setting [3]) and on Glucocorticoid Receptor (setting [4]) were 32.5%, greater than 5% and 2.7%, respectively. Further, the EC50 at human GR (U937 cells, Table 1) came to 1840 nM; on Glucocorticoid Receptor (A549 cells) it was 3290 nM. In assay [1], this compound yielded an inhibition constant (Ki) of 39.1 nM.

On to `CCCN(CC1CCCO1)C(=O)[C@H]1CCC2=Cc3c(cnn3-c3ccc(F)cc3)C[C@@]21C` (stereo partly drawn) [Compound 62, (4αR,5S)-1-(4-fluorophenyl)-4α-methyl-N-propyl-N-(tetrahydrofuran-2-ylmethyl)-1,4,4α,5,6,7-hexahydrocyclopenta[f]indazole-5-carboxamide], for which the “GITAR Greater than by GRAMMER % SEP” value at human GR (Table 1) was found to be 23.5%. Further, the Emax on human GR (setting [2]) is 41.5%; at human GR (setting [3]) it was greater than 5%; on Glucocorticoid Receptor (setting [4]), 18%. Besides, the EC50 at human GR (U937 cells, Table 1) amounted to 688 nM; on Glucocorticoid Receptor (A549 cells) it was 602 nM. Also, the Ki in assay [1] is 6.9 nM.

`C[C@]12Cc3cnn(-c4ccc(F)cc4)c3C=C1CC[C@@H]2C(=O)N(CCO)Cc1ccccc1` [Compound 36, (4αR,5S)-N-benzyl-1-(4-fluorophenyl)-N-(2-hydroxyethyl)-4α-methyl-1,4,4α,5,6,7-hexahydrocyclopenta[f]indazole-5-carboxamide]: the “GITAR Greater than by GRAMMER % SEP” value on human GR (Table 1) is on record as 54.9%. Besides, the Emax on human GR (setting [2]) was 67.4%; on human GR (setting [3]), greater than 5%; at Glucocorticoid Receptor (setting [4]), 12.5%. The EC50 at human GR (U937 cells, Table 1) came out at 1280 nM; at Glucocorticoid Receptor (A549 cells), 872 nM. For the same compound, in assay [1], the Ki worked out at 11.7 nM.

As to `C[C@]12Cc3cnn(-c4ccc(F)cc4)c3C=C1CC[C@@H]2C(=O)N(CCC#N)C1CC1` [Compound 14, (4αR,5S)-N-(2-cyanoethyl)-N-cyclopropyl-1-(4-fluorophenyl)-4α-methyl-1,4,4α,5,6,7-hexahydrocyclopenta[f]indazole-5-carboxamide], the “GITAR Greater than by GRAMMER % SEP” value on human GR (Table 1) is on record as 27.1%. The Emax on human GR (setting [2]) was 38.3%; on human GR (setting [3]), greater than 5%; on Glucocorticoid Receptor (setting [4]) it was 11.2%. Besides, the EC50 at human GR (U937 cells, Table 1) was 1590 nM; on Glucocorticoid Receptor (A549 cells), 1420 nM. In addition, the Ki in assay [1] came to 10.8 nM.

As for `CCCN(CC1CCCO1)C(=O)[C@H]1CCC2=Cc3c(cnn3-c3ccc(F)cc3)C[C@@]21C` (stereo partly drawn) [Compound 63, (4αR,5S)-1-(4-fluorophenyl)-4α-methyl-N-propyl-N-(tetrahydrofuran-2-ylmethyl)-1,4,4α,5,6,7-hexahydrocyclopenta[f]indazole-5-carboxamide], at human GR (Table 1), the “GITAR Greater than by GRAMMER % SEP” value is listed as 17.6%. Moreover, at human GR (U937 cells, activity repressed by 100 nM dexamethasone = 100%, Table 1), the “Transrepression U937 Cells GITAR Emax” value stood at 45.9%. The EC50 on human GR (U937 cells, Table 1) stood at 713 nM; on Glucocorticoid Receptor (A549 cells) it was 725 nM. In assay [1], this compound registered a Ki of 6 nM. In addition, the “Transactivation A549 Cells GRAMMER Emax” value at Glucocorticoid Receptor (A549 cells, Emax relative to 300 nM dexamethasone) amounted to 28.3%.

Regarding `C[C@]12Cc3cnn(-c4ccc(F)cc4)c3C=C1CC[C@@H]2C(=O)N(CCC#N)CCC#N` [Compound 13, (4αR,5S)-N,N-bis(2-cyanoethyl)-1-(4-fluorophenyl)-4α-methyl-1,4,4α,5,6,7-hexahydrocyclopenta[f]indazole-5-carboxamide], the “GITAR Greater than by GRAMMER % SEP” value at human GR (Table 1) was found to be 13.6%. Also, the results for the Emax on human GR (setting [2]), on human GR (setting [3]) and at Glucocorticoid Receptor (setting [4]) were 28%, greater than 5% and 14.4%, respectively. In addition, the EC50 is 1080 nM at human GR (U937 cells, Table 1) and 519 nM at Glucocorticoid Receptor (A549 cells). This compound displayed a Ki in assay [1] of 35.3 nM.
